Tests used:
[1] = test system: TG2 fusion protein mCer-TG2-YFP; test: Fluorescence lifetime imaging (FLIM) of mCer-TG2-YFP conformation, SCC-13 cells; format: cell-based, human; conditions: NC9, VA4, VA5 0-20 μM 24 or 48 h; Cp4d 0-10 μM 48 h
Procedure: We monitored the impact of each inhibitor on intracellular TG2 structure using FLIM (Fluorescence Lifetime Imaging Microscopy). FLIM is a quantitative method of assessing fluorescence lifetime that measures energy transfer between donor and accept probes Fluorescence lifetime is measured in nanoseconds and a short lifetime correlates with close contact between probes (FIG. 29B). An advantage of this method is that fluorescent lifetimes are independent of probe concentration. In the present experiments, we expressed in cells a TG2 fusion protein in which the donor probe (mCER) is fused to the N-terminus and the acceptor probe (YFP) at the C-terminus (FIG. 29B). mCER and YFP comprise an ideal donor/acceptor pair; the donor probe is excited by laser illumination and energy transfer to the acceptor is monitored. The fluorescent lifetime is shorter when TG2 is in the closed conformation which brings mCER and YFP close together. SCC-13 cells were electroporated with empty vector, mCER-TG2 or mCER-TG2-YFP.
Fluorescence lifetime imaging. Fluorescence lifetime images were acquired using FLIM system (Alba 5 from ISS). […] Emission was observed through bandpass filter 480/35 nm (Chroma Technology) and detected by a photomultiplier H7422-40 (Hamamatsu). FLIM data were acquired using time-domain modality (SPC-830 TCSPC module from Becker and Hickl GmbH). […] To account for intensity heterogeneity within single intensity images, two to five consecutive scans were acquired and summed to build FLIM intensity image for lifetime analysis. […] FLIM data were analyzed using VistaVision Suite software (Vista v.213 from ISS). Lifetime images were generated by fitting data using single exponential intensity decay model. Intensity threshold for lifetime analysis was set of at least 3-fold above the intensity of dim cells and fitting procedure was performed for binned pixels at level of 3 (7×7 pixels). Lifetime distribution within image is represented with histogram showing pixel frequency of specific lifetime. The average lifetime values with standard deviations were calculated based on all processed pixels in lifetime image. FRET values were calculated according to the formula ET=1−(τDA/τD), where τD is the lifetime of donor (mCer-TG2) and τDA is the lifetime of donor-acceptor pair (mCer-TG2—YFP).

[2] = molecular target: T1, TG2 (Homo sapiens, UniProt P21980); test: Inhibitor modulation of recombinant TG2 conformation (native gel); format: biochemical; parameters: made in house; conditions: 500 μM inhibitor 1 h, then 0 or 500 μM GTP
T1 sequence (P21980 1-687): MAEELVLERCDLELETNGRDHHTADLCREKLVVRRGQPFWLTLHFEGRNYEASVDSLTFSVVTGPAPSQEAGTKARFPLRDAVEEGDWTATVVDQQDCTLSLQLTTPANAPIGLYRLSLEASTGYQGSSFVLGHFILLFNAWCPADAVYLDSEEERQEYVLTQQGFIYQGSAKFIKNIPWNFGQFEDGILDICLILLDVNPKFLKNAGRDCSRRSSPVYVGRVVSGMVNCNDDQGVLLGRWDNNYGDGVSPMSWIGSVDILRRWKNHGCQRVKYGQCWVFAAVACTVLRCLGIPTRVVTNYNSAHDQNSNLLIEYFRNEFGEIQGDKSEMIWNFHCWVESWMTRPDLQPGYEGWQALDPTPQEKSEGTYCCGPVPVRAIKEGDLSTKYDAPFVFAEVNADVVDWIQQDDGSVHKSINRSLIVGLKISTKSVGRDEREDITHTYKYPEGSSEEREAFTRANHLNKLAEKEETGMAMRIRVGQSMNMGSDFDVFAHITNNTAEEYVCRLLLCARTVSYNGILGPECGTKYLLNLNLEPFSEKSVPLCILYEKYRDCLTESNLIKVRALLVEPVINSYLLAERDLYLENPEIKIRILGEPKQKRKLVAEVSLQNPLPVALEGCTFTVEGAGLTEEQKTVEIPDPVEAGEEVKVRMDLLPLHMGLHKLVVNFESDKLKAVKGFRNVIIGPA
Procedure: Inhibitor modulation of recombinant TG2 conformation. Recombinant TG2 protein was prepared in the Center for Biomolecular Therapeutics by Dr. Eric Toth (University of Maryland School of Medicine). […] In some experiments, inhibitor and GTP were added simultaneously. Laemmli native loading buffer was added, and 6 μg of protein was electrophoresed on a native 4% to 6% acrylamide gel and electrophoresed at 125 V for 45 min at 4° C. using Tris-glycine running buffer (Pinkas, D. M. et al., PLoS Biol 5:e327, 2007; Begg, G. E. et al., Proc. Natl. Acad. Sci. USA 103:19683-8, 2006). The gel was subsequently fixed in 40% methanol/10% acetic acid for 30 min, stained 30 minutes with 0.25% Coomassie R-250, destained overnight with 10% methanol/10% acetic acid and photographed.

[3] = molecular target: T1, TG2; test: In situ TG2 transamidase activity assay (fluorescein cadaverine incorporation), SCC-13 cells; format: cell-based; parameters: endogenous in cells; host or cells: SCC-13; conditions: for FC incorporation (TG2 transamidase activity): 20 μM 30 min, then A23187 90 min
Procedure: Insitu TG2 activity assay. Cells (40,000) were plated in 24-well attachment dishes in spheroid media and grown until 50% confluent. Fluorescein cadaverine (FC) was added in 2 mL of serum-free medium at a final concentration of 20 μM and incubated for 4 hours. The wells were washed twice with serum-free spheroid medium, and then 2 mL of fresh serum-free medium was added containing 0-20 μM NC9. After 30 min, the wells were supplemented with 10 μM A23187. Cells were incubated for an additional 90 min and then washed three times with Ca^++/Mg^++-free HBSS, fixed with formalin, and washed with phosphate-buffered saline and imaged to detect fluorescein.
In situ TG2 transamidase activity assay. Cells (40,000) were plated in 24-well attachment dishes in spheroid media and grown until 50% confluent. FC was added in 2 ml of serum-free medium at a final concentration of 20 μM and incubated for 4 h. […] After 30 min, the wells were supplemented with 10 NM A23187, a calcium ionophore.

[4] = test system: HaCaT cells; test: Matrigel invasion assay, HaCaT cells; format: cell-based, human; conditions: 20 μM, 24 h
[5] = molecular target: T2, endogenous TG2 (Homo sapiens, UniProt P21980); test: TG2 GTP-agarose pull-down assay, HaCaT cells; format: cell-based; conditions: 48 h
T2 construct: endogenous in cells; host or cells: HaCaT
T2 sequence (P21980 1-687): T1 sequence (P21980 1-687)
Procedure: HaCaT cells were electroporated with mCer-TG2 or mCer-TG2-YAP and then treated with 0 or 5 μM of the indicated inhibitor and fluorescent lifetime was monitored. […] HaCaT cells were preloaded with fluorescein cadaverine, treated with the indicated inhibitor and then challenged with calcium ionophore, washed and assayed for FC incorporation. […] HaCaT were incubated for 48 h with the indicated inhibitor and extracts were prepared and incubated with GTP-agarose beads to measure TG2 binding to GTP agarose. The beads were then washed, boiled in Laemmli buffer and electrophoresed for immunoblot detection of TG2. Cell equivalent quantities of total and bound samples were electrophoresed to facilitate comparison of GTP bound versus total. […] Experiments were performed as described in FIGS. 31 (F) and (G).

Compound: C=CC(=O)NCCCC[C@H](NC(=O)OCc1ccccc1)C(=O)NCCOCCOCCNS(=O)(=O)c1cccc2c(N(C)C)cccc12 [NC9]
- fluorescence lifetime of mCer-TG2-YFP [1]: markedly increased
- recombinant TG2 conformation, pre-incubation with inhibitor [2]: shifted TG2 from the closed to extended conformation and that this was not reversed by GTP addition
- FC incorporation (TG2 transamidase activity) [3]: drastically reduced
- TG2 transamidase activity (FC incorporation) ([3]; 20 μM NC9, calcium ionophore): reduced
- invasion through matrigel [4]: suppressed
- TG2 GTP binding [5]: reduced TG2 GTP binding

Compound: C=CC(=O)NCCCC[C@H](NC(=O)OCc1ccccc1)C(=O)N1CCN(S(=O)(=O)c2cccc3c(N(C)C)cccc23)CC1 [VA4, (S)-benzyl(6-acrylamido-1-(4-((5-(dimethylamino)naphthalen-1-yl)sulfonyl)piperazin-1-yl)-1-oxohexan-2-yl)carbamate]
- fluorescence lifetime of mCer-TG2-YFP [1]: markedly increased
- recombinant TG2 conformation, pre-incubation with inhibitor [2]: shifted TG2 from the closed to extended conformation and that this was not reversed by GTP addition
- FC incorporation (TG2 transamidase activity) [3]: drastically reduced
- invasion through matrigel [4]: suppressed
- TG2 GTP binding [5]: reduced TG2 GTP binding

Compound: C=CC(=O)NCCCC[C@H](NC(=O)OCc1ccccc1)C(=O)N1CCN(C(=O)c2cc3ccc(O)cc3oc2=O)CC1 [VA5, (S)-Benzyl(6-acrylamido-1-(4-(7-hydroxy-2-oxo-2H-chromene-3-carbonyl)piperazin-1-yl)-1-oxohexan-2-yl)carbamate]
- fluorescence lifetime of mCer-TG2-YFP [1]: markedly increased
- recombinant TG2 conformation, pre-incubation with inhibitor [2]: shifted TG2 from the closed to extended conformation and that this was not reversed by GTP addition
- FC incorporation (TG2 transamidase activity) [3]: drastically reduced
- invasion through matrigel [4]: suppressed
- TG2 GTP binding [5]: reduced TG2 GTP binding
